What was measured:
[1] = target: other members of the PDE family (Homo sapiens, UniProt O60658); assay: In vitro PDE selectivity assay (SPA), other members of the PDE family (protocols in Table A); type: biochemical; conditions: hPDE8A1; read-out: PDE 8A1 (expressed as pIC50) (converted)
In short: (§1)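 Inhibition of each PDE isoform was measured by scintillation proximity assay with ³H-cyclic nucleotide substrate, using incubation buffer, substrate concentration, incubation time and stop solution adapted per isoform. Compounds were tested in dose-response against 1% DMSO controls and enzyme-free blanks. IC50 came from a least-squares fit of blank-subtracted % of control versus concentration.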

[2] = target: other members of the PDE family (Homo sapiens, UniProt P16499+P35913); assay: as above; type: biochemical; conditions: hPDE6AB; read-out: PDE 6AB (expressed as pIC50) (converted)
In short: as §1

other members of the PDE family (Homo sapiens, UniProt O60658), sequence (O60658 whole entry, canonical isoform): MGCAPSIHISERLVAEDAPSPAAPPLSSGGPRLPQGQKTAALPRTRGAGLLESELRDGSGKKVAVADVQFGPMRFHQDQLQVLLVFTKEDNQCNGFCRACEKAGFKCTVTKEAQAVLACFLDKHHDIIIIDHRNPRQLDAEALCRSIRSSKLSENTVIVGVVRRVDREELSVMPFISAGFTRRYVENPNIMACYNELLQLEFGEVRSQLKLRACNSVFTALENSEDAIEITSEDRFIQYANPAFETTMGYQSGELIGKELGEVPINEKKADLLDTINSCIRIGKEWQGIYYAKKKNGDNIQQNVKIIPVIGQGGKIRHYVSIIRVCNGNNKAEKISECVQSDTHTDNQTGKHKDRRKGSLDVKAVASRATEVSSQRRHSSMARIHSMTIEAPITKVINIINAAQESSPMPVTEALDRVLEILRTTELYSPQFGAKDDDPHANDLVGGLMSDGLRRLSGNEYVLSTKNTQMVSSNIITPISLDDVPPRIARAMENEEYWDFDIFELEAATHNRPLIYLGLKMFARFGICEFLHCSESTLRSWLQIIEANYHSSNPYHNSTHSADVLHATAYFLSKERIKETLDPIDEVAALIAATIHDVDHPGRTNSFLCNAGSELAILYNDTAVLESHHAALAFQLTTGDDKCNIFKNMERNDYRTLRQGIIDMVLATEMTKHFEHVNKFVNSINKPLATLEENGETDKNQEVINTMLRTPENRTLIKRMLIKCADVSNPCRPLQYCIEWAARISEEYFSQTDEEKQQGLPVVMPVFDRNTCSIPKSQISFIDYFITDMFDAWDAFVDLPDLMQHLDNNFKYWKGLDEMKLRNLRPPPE
other members of the PDE family (Homo sapiens, UniProt P16499+P35913), sequence (P16499 whole entry): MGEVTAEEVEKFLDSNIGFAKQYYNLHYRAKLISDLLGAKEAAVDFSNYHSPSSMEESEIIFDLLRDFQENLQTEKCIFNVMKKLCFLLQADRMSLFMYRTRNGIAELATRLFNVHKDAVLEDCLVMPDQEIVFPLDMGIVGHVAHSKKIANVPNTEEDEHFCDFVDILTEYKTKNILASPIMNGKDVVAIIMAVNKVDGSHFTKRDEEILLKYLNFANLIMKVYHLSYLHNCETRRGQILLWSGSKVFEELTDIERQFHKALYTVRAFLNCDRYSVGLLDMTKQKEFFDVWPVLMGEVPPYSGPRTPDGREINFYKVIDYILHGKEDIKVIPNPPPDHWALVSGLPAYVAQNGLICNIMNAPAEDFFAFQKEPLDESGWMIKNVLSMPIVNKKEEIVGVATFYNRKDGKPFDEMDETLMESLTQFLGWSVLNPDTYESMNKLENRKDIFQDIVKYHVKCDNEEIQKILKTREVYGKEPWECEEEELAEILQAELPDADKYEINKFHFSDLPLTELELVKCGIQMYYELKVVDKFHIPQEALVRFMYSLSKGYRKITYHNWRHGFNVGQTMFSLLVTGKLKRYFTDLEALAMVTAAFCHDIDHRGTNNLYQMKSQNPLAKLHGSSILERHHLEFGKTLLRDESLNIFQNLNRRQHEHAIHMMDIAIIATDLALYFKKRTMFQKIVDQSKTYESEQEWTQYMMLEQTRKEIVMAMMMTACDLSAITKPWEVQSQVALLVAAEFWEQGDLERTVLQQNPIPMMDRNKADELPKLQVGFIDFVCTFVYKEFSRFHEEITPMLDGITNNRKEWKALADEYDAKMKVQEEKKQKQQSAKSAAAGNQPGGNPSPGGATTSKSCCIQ
other members of the PDE family (Homo sapiens, UniProt P16499+P35913), sequence (P35913 whole entry): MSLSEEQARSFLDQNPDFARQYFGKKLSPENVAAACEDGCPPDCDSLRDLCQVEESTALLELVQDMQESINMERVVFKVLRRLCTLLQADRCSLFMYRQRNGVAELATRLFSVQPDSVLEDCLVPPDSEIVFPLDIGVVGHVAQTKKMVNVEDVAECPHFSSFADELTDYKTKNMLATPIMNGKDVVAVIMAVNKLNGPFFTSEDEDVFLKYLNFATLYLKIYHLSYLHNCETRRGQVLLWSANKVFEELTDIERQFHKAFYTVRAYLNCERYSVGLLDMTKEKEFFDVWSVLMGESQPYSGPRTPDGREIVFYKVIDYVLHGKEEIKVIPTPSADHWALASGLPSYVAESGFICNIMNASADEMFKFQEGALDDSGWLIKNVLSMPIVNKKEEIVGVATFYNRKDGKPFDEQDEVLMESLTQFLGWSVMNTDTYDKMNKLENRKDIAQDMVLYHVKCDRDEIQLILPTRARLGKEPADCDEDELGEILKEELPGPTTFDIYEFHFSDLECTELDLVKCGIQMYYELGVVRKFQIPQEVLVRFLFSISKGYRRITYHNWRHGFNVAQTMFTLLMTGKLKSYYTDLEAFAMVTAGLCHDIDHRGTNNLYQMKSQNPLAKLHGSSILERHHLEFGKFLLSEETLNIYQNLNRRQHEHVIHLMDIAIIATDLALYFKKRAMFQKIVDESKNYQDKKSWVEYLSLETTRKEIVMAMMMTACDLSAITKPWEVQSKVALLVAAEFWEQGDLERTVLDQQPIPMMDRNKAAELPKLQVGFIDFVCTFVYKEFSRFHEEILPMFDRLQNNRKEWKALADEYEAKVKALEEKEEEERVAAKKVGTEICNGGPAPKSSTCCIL

Q: With `COCCc1ccc(-c2c(C)nc3c(N4CCOCC4)ccnn23)cn1` [compound 1, 3-[6-(2-methoxyethyl)-3-pyridinyl]-2-methyl-8-(4-morpholinyl)-imidazo[1,2-b]pyridazine] as the molecule, how does the IC50 [1] read?
A: The IC50 was 77.6 µM.

Q: And the IC50 [2]?
A: The IC50 was 85.1 µM.

Source: US20120220581A1, “IMIDAZO[1,2-b]PYRIDAZINE DERIVATIVES AND THEIR USE AS PDE10 INHIBITORS” (Janssen-Cilag, S.A., priority 2009, published 2012)
